Measurements from article PMC11359794, “Amorphous Polymer–Phospholipid Solid Dispersions for the Co-Delivery of Curcumin and Piperine Prepared via Hot-Melt Extrusion” (Pharmaceutics, 2024).
Converted amounts (≈) assume the structure as drawn. Read-outs that look alike come from different tables or passages of the source. Marks after values point to notes of the source that are not given here.

Columns and labels:
[1] = Differential scanning calorimetry (glass transition, glass-forming ability); type: physicochemical; details: heating–cooling–heating, different cooling rates; no crystallization during cooling and following heating
Protocol: A DSC 214 Polyma differential scanning calorimeter (Netzsch, Selb, Germany) was used for the thermal analysis. Samples of about 5–10 mg were put into crimped aluminum pans with a small hole in the lid. To remove water from the samples, they were heated to 80 °C and kept for 8 min at this temperature, cooled to 25 °C, and then heated again to 235 °C. Raw compounds were heated to 235 °C, cooled to 25 °C, and then heated once again to 235 °C to determine their glass transition temperature (Tg). […] The Tg was taken as the midpoint between onset and endpoint temperatures. Various heating–cooling–heating cycles were carried out to evaluate the glass-forming abilities.

[2] = PAMPA permeability assay, gastrointestinal tract (GIT) model; type: in vitro ADME; details: donor pH ≈6.8, 4 h, 37 °C
Text: (§1) HPLC was used to measure the concentrations of piperine and curcumin in samples taken during permeability, dissolution, and solubility investigations. A Shimadzu LC-2050C (Shimadzu Corp., Kyoto, Japan) was equipped with a diode array detector (DAD). A Dr. Maisch ReproSil-Pur Basic-C18 100 Å column with a 5 µm particle size and a 100 × 4.60 mm size (Dr. Maisch, Ammerbuch-Entringen, Germany) was used as a stationary phase. HPLC-grade methanol/0.1% acetic acid (85:15 v/v) was used as the mobile phase. The mobile phase was vacuum filtered through a 0.45 µm nylon filter (Phenomenex, Torrance, CA, USA). The analysis parameters were as follows: a flow rate of 0.3 mL/min, a wavelength of 420 nm for curcumin and 340 nm for piperine, and a column temperature of 30 °C. The injection volume differed depending on the assay. […] The duration of the run was 9 min. […] Chromatograms (Figure S1) and method validation parameters (Table S1) were added to the Supplementary Materials. The Parallel Artificial Membrane Permeability Assay (PAMPA) models were used to study the permeability of the blood-brain barrier (BBB) and the gastrointestinal tract (GIT) in vitro. Two 96-well microfilter plates formed the sandwich. There were two chambers in the PAMPA system: the acceptor chamber at the top and the donor chamber at the bottom. […]

[3] = Solubility studies (excess powder, 24 h, 25 °C, HPLC); type: physicochemical; details: for solubility at 24 h: 25 °C; for Solubility classification: based on solubility test at pH 1.2 and pH 6.8, crystalline compounds
Text: HPLC was used to measure the concentrations of piperine and curcumin in samples taken during permeability, dissolution, and solubility investigations. A Shimadzu LC-2050C (Shimadzu Corp., Kyoto, Japan) was equipped with a diode array detector (DAD). A Dr. Maisch ReproSil-Pur Basic-C18 100 Å column with a 5 μm particle size and a 100 × 4.60 mm size (Dr. Maisch, Ammerbuch-Entringen, Germany) was used as a stationary phase. HPLC-grade methanol/0.1% acetic acid (85:15 v/v) was used as the mobile phase. The mobile phase was vacuum filtered through a 0.45 μm nylon filter (Phenomenex, Torrance, CA, USA). The analysis parameters were as follows: a flow rate of 0.3 mL/min, a wavelength of 420 nm for curcumin and 340 nm for piperine, and a column temperature of 30 °C. The injection volume differed depending on the assay. […] The duration of the run was 9 min. […] Chromatograms (Figure S1) and method validation parameters (Table S1) were added to the Supplementary Materials. The following steps were used to prepare phosphate buffer at pH 6.8: In a 1000 mL volumetric flask, 250 mL of 0.2 N potassium dihydrogen phosphate solution was added, followed by 112 mL of a 0.2 N sodium hydroxide solution. Purified water was added to make the volume up to 1000 mL. A hydrochloric acid solution with a pH of 1.2 was prepared according to the manufacturer's instructions ([…], Poznań, Poland) from the analytically weighed amount. A 10 mL glass tube was filled with an excess amount of powder (corresponding to 4 mg of each active substance). […] The obtained solutions were filtered, diluted 1:20 v/v with water, and filtered again through a 0.2 μm PTFE membrane filter (Sigma-Aldrich, St. Louis, MO, USA) and analyzed using the HPLC method described above.

[4] = PAMPA permeability assay, blood-brain barrier (BBB) model; type: in vitro ADME; details: donor pH ≈7.4, 4 h, 37 °C
Text: as §1

[5] = cited from earlier work

| Structure (SMILES) | Glass-forming ability [1] | Permeability, Piperine Conc. in the acceptor solution [2] | solubility at 24 h ([3]; HCl solution, simulated gastric fluid, thermodynamic from solid, pH 1.2 HCl, read-out: Solubility, Piperine Conc.) | solubility at 24 h ([3]; aqueous buffer, thermodynamic from solid, pH 6.8 phosphate buffer, read-out: Solubility, Piperine Conc.) | Solubility classification [3] | Permeability, Piperine Conc. in the acceptor solution [4] | Log P [5] | Permeability, Curcumin Conc. in the acceptor solution [2] | solubility at 24 h ([3]; HCl solution, pH 1.2 HCl, read-out: Solubility, Curcumin Conc.) | Permeability, Curcumin Conc. in the acceptor solution [4] |
| --- | --- | --- | --- | --- | --- | --- | --- | --- | --- | --- |
| O=C(/C=C/C=C/c1ccc2c(c1)OCO2)N1CCCCC1 [Piperine] | good glass-forming ability | 0.0044 ± 0.0008 ^g mg/mL | 9 ± 0.6 µg/mL (≈ 31.5 µM) | 8 ± 0.4 µg/mL (≈ 28 µM) | practically insoluble | 0.0051 ± 0.0003 ^f mg/mL | 2.78 |  |  |  |
| COc1cc(/C=C/C(=O)CC(=O)/C=C/c2ccc(O)c(OC)c2)ccc1O [Curcumin] | good glass-forming ability |  |  |  | practically insoluble |  |  | 0.00061 ± 0.000038 ^g mg/mL | 0.11 ± 0.01 µg/mL (≈ 0.299 µM) | 0.00016 ± 0.000057 ^f mg/mL |
